Activity calls are given as the source filed them.
Key:
[1] = tested on: HeLa; test: Cytotoxicity counterscreen assay for transcriptional activators of heat shock protein 70 (Hsp70). [Related pubchem assays: 1203, 1252 ]; type: functional; conditions: Homo sapiens;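 note: cells exposed to compound for 16 hours before readout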
[2] = control 3'UTR Renilla luciferase suppression, dose response, counter-screen for Shn3 inhibitor project, cell-based, Clone20-Shn3RL, cherry-picked (AID 624133); type: functional
[3] = Shn3 3'UTR reporter inhibitors, dose response, cell-based, Clone20 osteoblasts, firefly luciferase, cherry-picked (AID 624132); type: functional;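 note: firefly luciferase luminescence from reporter carrying the Shn3 3'UTR in osteoblasts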
[4] = molecular target: Neurotensin receptor type 1 (Homo sapiens, UniProt P30989); type: functional;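 note: Image-based confirmatory dose-response assay measuring agonist activity at NTR1; NTR1-expressing U2OS osteosarcoma cells imaged for beta-arrestin GFP spot formation; agonist potency where compounds increase beta-arrestin recruitment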
[5] = cytotoxicity in HEK-293T cells, dose response, cytotoxicity control for TCR NF-kB inhibitor project, luminescence, T-cell screen hits (AID 489026); type: functional, cell-based;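 note: cells exposed to compound about 14 hours before the viability readout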
[6] = tested on: BJ; test: cytotoxicity toward Ras-transformed BJeLR fibroblasts, dose response, cell-based, alamar blue fluorescence, cherrypicked samples (AID 2631); type: functional; conditions: Homo sapiens;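 note: confirmatory dose-response assay in RAS-dependent BJ fibroblasts engineered with TERT, LT and ST, with cytotoxicity read by fluorescence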
[7] = molecular target: T1, Sentrin-specific protease 8 (Homo sapiens, UniProt Q96LD8); test: SENP8 protease inhibitors, SAR follow-up, biochemical, luminescence (AID 504501); type: functional
T1 sequence (Q96LD8 whole entry): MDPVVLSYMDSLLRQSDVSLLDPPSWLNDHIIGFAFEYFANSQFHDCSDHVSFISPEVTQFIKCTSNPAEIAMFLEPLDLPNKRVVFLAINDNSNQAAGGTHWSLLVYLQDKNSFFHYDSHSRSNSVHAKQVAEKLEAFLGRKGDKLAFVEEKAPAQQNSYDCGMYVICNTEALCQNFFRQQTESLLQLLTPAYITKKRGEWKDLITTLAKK

[8] = molecular target: Serine/threonine-protein phosphatase PP1-alpha catalytic subunit (Homo sapiens, UniProt P62136); test: PP1 phosphatase inhibitors, dose response, biochemical, fluorescence (AID 2394)
[9] = molecular target: Serine/threonine-protein phosphatase (Homo sapiens, UniProt Q9BPW0); test: PP5 phosphatase inhibitors, dose response, biochemical, fluorescence (AID 2395)
[10] = tested on: Vero; test: Vero cell cytotoxicity, cytotoxicity control for flavivirus capping enzyme inhibitors (AID 588742); type: functional; conditions: Chlorocebus sabaeus
[11] = molecular target: T2, Mannose-6-phosphate isomerase (Homo sapiens, UniProt P34949); test: human PMI inhibitors, high substrate, primary screen, biochemical, fluorescence intensity, high mannose 6-phosphate (AID 1220)
T2 sequence (P34949 whole entry): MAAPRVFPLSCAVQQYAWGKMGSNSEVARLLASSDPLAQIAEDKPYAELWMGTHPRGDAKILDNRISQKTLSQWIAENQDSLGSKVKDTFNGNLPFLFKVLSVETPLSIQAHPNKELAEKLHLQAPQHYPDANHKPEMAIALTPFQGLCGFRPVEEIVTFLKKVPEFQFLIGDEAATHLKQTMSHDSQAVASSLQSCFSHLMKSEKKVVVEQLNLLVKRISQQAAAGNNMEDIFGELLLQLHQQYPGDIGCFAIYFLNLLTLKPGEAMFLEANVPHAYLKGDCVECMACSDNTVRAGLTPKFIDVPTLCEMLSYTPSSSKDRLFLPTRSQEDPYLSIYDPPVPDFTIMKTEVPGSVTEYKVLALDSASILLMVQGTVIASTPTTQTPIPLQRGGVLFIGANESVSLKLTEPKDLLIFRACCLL

[12] = molecular target: RNA-editing ligase 1, mitochondrial (Trypanosoma brucei brucei, UniProt P86926); test: TbREL1 ligase inhibitors, dose response, biochemical, fluorescence, Trypanosoma brucei (AID 1117295); type: functional
[13] = molecular target: T3, Beta-galactosidase (Escherichia coli, UniProt Q8VNN2); test: PubChem AID 485352; type: functional
[14] = molecular target: T4, 1-phosphatidylinositol 4,5-bisphosphate phosphodiesterase gamma-1 (Homo sapiens, UniProt P19174); test: Counterscreen for inhibitors of phospholipase C isozymes (PLC-B3): Fluorescence-based biochemical high throughput dose response assay to identify inhibitors of phospholipase C isozymes (PLC-gamma1).
T4 sequence (P19174 whole entry): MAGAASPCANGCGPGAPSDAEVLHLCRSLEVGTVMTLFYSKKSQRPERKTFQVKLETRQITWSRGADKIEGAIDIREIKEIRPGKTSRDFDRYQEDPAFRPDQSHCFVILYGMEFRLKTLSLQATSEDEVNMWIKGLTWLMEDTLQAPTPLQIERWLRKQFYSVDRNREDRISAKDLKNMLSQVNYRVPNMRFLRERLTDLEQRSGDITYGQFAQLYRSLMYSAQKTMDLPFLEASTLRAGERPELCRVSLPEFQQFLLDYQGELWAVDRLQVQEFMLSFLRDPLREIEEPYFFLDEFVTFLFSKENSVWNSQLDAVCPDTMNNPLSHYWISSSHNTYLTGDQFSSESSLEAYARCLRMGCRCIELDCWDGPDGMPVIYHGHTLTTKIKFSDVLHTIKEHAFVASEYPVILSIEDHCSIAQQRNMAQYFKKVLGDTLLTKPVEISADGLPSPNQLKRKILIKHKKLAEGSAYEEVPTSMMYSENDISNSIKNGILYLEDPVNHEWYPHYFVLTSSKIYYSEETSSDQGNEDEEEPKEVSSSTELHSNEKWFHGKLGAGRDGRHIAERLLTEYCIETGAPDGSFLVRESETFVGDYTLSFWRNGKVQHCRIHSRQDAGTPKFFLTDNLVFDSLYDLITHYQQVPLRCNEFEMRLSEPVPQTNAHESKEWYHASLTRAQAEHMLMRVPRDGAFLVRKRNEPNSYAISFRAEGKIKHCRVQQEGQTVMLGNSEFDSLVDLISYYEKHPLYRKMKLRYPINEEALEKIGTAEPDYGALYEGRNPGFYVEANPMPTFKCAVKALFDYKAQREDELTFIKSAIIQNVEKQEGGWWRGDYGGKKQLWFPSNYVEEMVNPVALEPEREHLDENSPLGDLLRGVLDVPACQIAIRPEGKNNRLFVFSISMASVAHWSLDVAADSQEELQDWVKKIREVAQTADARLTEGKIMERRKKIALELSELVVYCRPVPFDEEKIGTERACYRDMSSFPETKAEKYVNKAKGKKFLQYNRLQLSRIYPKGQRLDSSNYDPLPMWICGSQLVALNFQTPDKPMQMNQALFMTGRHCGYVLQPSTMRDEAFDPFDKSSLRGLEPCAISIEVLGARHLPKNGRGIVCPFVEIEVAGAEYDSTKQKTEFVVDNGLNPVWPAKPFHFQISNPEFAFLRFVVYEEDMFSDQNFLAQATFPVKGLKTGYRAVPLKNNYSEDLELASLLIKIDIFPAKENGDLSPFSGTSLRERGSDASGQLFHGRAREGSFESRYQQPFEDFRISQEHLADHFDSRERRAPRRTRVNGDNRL

[15] = molecular target: T3, Beta-galactosidase; test: beta-galactosidase enzyme inhibitors and activators, dose response, artefact control for CCR6 antagonist project, biochemical, E. coli enzyme, set 3 (AID 504712); type: functional
[16] = growth suppression of beta-catenin-knockout colon cells, dose response, cell-based, HCT116, human colon tumor (AID 1045); type: functional;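 note: HCT116 colon tumor cells with beta catenin knocked out; cells exposed to compound for 60 hours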
[17] = molecular target: C-C chemokine receptor type 6 (Homo sapiens, UniProt P51684); test: CCR6 receptor antagonists, dose response, cell-based, luminescent beta-arrestin readout (AID 504728); type: functional
C-C chemokine receptor type 6, sequence (P51684 whole entry): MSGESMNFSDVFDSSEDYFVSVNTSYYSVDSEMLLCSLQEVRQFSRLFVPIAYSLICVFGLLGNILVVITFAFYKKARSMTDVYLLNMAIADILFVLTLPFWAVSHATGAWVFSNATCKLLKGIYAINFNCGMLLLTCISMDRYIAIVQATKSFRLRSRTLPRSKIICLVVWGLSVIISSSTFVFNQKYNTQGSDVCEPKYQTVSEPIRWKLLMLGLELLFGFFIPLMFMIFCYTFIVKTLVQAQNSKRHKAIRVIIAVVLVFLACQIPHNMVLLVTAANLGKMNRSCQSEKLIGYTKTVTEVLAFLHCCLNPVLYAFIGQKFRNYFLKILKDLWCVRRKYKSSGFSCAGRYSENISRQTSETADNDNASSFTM

T3 sequence (Q8VNN2 whole entry): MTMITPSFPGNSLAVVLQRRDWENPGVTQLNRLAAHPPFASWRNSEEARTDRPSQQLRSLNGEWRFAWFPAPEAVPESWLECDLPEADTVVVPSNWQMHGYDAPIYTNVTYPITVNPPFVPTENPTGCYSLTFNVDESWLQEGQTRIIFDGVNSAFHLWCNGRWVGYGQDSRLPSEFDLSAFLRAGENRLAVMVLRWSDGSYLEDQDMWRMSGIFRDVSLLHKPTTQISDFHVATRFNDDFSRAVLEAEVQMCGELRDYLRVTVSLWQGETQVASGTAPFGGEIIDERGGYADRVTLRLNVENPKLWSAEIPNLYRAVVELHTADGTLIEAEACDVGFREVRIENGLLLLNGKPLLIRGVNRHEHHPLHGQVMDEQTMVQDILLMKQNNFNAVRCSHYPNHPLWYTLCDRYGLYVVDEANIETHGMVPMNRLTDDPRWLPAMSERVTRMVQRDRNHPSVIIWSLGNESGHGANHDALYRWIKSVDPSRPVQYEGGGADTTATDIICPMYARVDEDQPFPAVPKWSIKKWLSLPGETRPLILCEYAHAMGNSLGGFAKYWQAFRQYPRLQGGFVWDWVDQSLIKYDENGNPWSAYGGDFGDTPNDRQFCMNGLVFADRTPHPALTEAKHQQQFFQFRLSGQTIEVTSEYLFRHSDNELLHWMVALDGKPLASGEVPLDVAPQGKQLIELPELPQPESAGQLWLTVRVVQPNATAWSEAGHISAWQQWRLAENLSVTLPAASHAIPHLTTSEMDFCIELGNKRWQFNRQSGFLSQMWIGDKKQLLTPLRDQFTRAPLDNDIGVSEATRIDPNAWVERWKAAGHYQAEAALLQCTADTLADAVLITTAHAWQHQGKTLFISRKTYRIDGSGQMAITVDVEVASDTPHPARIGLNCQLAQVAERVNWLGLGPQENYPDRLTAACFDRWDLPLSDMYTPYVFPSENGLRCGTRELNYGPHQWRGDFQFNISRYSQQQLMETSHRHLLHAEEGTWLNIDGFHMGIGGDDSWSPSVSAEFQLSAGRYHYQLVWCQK
Neurotensin receptor type 1, sequence (P30989 whole entry): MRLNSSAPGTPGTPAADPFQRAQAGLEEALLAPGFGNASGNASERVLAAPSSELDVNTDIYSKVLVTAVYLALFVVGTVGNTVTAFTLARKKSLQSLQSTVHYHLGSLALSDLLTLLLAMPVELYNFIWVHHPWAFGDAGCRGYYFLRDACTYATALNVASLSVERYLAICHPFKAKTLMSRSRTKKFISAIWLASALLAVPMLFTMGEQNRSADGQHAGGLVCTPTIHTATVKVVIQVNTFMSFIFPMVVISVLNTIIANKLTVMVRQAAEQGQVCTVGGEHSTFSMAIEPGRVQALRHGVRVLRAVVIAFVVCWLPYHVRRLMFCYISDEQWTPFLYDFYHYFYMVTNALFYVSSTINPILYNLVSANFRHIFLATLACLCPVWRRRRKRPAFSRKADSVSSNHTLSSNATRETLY
Serine/threonine-protein phosphatase, sequence (Q9BPW0 whole entry): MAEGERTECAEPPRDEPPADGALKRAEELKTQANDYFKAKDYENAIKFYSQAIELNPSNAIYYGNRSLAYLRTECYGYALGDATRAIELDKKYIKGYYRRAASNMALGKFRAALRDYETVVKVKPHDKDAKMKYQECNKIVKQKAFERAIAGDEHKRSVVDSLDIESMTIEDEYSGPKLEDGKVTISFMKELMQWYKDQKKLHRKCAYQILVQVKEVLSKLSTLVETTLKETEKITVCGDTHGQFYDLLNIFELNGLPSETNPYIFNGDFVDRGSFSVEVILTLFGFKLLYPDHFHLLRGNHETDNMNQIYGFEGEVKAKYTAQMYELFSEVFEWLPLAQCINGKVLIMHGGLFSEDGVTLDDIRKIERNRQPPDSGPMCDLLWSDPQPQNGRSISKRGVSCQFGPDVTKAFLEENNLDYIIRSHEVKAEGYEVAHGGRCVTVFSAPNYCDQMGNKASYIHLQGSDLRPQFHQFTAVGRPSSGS
Serine/threonine-protein phosphatase PP1-alpha catalytic subunit, sequence (P62136 whole entry): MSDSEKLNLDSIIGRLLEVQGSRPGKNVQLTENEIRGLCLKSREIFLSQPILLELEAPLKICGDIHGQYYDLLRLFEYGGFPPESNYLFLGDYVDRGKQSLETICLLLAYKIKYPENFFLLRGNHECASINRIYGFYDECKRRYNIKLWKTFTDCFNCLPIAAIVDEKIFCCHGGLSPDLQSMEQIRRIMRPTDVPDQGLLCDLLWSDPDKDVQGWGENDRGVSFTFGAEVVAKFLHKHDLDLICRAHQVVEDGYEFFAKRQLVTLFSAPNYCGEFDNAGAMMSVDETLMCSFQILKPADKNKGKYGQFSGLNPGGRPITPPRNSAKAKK
RNA-editing ligase 1, mitochondrial, sequence (P86926 whole entry): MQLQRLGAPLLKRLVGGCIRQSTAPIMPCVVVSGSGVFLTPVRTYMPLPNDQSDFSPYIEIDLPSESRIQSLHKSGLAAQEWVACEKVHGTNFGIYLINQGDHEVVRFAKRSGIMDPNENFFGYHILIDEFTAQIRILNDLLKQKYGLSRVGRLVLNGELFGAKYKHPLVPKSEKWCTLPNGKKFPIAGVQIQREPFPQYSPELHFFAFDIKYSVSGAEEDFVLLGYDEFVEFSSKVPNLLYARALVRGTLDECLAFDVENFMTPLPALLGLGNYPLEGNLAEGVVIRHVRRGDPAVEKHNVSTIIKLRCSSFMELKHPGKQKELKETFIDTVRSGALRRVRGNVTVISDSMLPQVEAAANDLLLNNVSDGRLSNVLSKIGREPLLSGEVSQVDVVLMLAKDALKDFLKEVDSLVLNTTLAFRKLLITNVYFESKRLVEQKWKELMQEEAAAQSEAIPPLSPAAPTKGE

Question: With `COC(=O)C[C@]1(C(=O)OC)CN(C#N)N(c2ccc(Cl)cc2)C12c1ccccc1-c1ccccc12` as the compound, how does the CC50 [1] read?
Answer: 3.55 µM (active)

Question: And the AC50 [2]?
Answer: 1.67 µM (active)

Question: What about the AC50 [3] of the same compound?
Answer: 1.88 µM (active)

Question: And the EC50 [4]?
Answer: 3.27 µM (active)

Question: What about the IC50 [5] of the same compound?
Answer: > 80 µM (inactive)

Question: What about the EC50 [6] of the same compound?
Answer: 1.07 µM (active)

Question: Which IC50 [7] does the source give for `O=C(Nc1ccc(C#Cc2ccccc2)cc1)C1CC1` here?
Answer: > 99 µM (inactive)

Question: Which results are given for `CCCCn1c(NC(=O)c2ccco2)c(C(=O)OCC)c2nc3ccccc3nc21`?
Answer: IC50 [8]: 62.5 µM (not active); IC50 [9]: 10.3 µM (not active); CC50 [10]: > 40 µM (active); IC50 [11]: > 50 µM (not active); IC50 [12]: 21.8 µM (inactive); EC50 [13]: > 40 µM (inactive)

Question: For `Cc1ccccc1NC1=C/C(=N\S(=O)(=O)c2ccc(C(=O)O)cc2)c2ccccc2C1=O`, which IC50 [14] is on record?
Answer: 90.1 µM (inactive)

Question: With `Cc1ccc(NC2=C/C(=N/S(=O)(=O)c3cccs3)c3ccccc3C2=O)cc1` as the compound, how does the IC50 [15] read?
Answer: 50.8 µM (inactive)

Question: What about the EC50 [16] of the same compound?
Answer: 2.82 µM (active)

Question: What about the IC50 [17] of the same compound?
Answer: > 66.6 µM (inactive)

— ChEMBL document CHEMBL1201862, “PubChem BioAssay data set” (2004)
